# Results from US11400059B2, “Treatment of pain and/or pain related symptoms associated with dysmenorrhea” (ALYRA BIOTECH PTY LTD, priority 2017, dated 2022).
# Tests used:
# [1] = test system: spinal glial cells in the dorsal horn of the spinal cord; assay: Spinal glial activation (astrocytes and microglia) after intrauterine LPS, overall statements; format: in vivo, mouse (Balb/C); details: for spinal glial activation induced by intrauterine LPS: intrauterine co-administration with LPS
# Excerpt: In the model, we investigated whether intrauterine LPS administration would cause an activation of the innate immune system in the uterus, replicating the inflammation often seen in dysmenorrhea, with possible association with pain. As inflammation is intrinsically linked with pain, we investigated whether activation of the innate immune system in the uterus would induce activation of spinal glial cells (central nervous system immune cells) in the dorsal horn of the spinal cord. Spinal glial cells include astrocytes and microglia. Activation of spinal glial cells was assessed using immunoflourescent staining with GFAP (astrocytes) or Iba1 (microglia). We then investigated if spinal glial activation is attenuated by the innate immune system blocking drugs amitriptyline and TAK-242.
# Group 1 included twelve mice with 20 μl endotoxin-free saline introduced to the uterus on the first day of estrus and the subsequent day over 3 consecutive estrous cycles. Group 2 included twelve mice with LPS (100 μg/kg) instilled in the uterus on the first day of estrus and saline injected on the subsequent day over 3 consecutive estrous cycles. Group 3 included twelve mice with LPS (100 μg/kg) mixed with amitriptyline (20 μl of a 100 μM solution, equivalent to 28 μg/kg) instilled in the uterus on the first day of estrus, and amitriptyline alone instilled on the subsequent day over 3 consecutive estrous cycles. Group 4 included 14 mice with LPS (100 μg/kg) mixed with TAK-242 (20 μl of a 100 μM solution, equivalent to 36 μg/kg) instilled on the first day of estrus and TAK-242 alone instilled on the subsequent day over 3 consecutive estrous cycles.
# Determination of spinal glial response was then assessed using immunofluorescence to confirm the validity of the experimental model.
# Determination of the ability of TLR4 antagonists to block the activation of spinal astrocytes and microglia induced by intra-uterine instillation of LPS was assessed.
# An assessment of glial activation was made using immunochemistry techniques including Ionized calcium binding adaptor molecule 1 (Iba1) expression and glial fibrillary-associated protein (GFAP) variability in the dorsal horn. Iba1 expression is a marker for microglial activation, and GFAP is a marker for astrocyte activation. The spinal cord levels chosen are consistent with the level of spinal afferent neurons associated with the pelvis, including the uterus in the mouse.
# [2] = taken orally; cited from earlier work
# human RIG-I = target: T1, human RIG-I (Homo sapiens, UniProt O95786); assay: Human RLR antagonist screening, IRF3 luciferase reporter in HEK293 cells; format: cell-based; details: antagonist mode, Ami 1 μM
# T1 construct: expressed in transfected cells; host or cells: HEK293
# T1 sequence (O95786 whole entry): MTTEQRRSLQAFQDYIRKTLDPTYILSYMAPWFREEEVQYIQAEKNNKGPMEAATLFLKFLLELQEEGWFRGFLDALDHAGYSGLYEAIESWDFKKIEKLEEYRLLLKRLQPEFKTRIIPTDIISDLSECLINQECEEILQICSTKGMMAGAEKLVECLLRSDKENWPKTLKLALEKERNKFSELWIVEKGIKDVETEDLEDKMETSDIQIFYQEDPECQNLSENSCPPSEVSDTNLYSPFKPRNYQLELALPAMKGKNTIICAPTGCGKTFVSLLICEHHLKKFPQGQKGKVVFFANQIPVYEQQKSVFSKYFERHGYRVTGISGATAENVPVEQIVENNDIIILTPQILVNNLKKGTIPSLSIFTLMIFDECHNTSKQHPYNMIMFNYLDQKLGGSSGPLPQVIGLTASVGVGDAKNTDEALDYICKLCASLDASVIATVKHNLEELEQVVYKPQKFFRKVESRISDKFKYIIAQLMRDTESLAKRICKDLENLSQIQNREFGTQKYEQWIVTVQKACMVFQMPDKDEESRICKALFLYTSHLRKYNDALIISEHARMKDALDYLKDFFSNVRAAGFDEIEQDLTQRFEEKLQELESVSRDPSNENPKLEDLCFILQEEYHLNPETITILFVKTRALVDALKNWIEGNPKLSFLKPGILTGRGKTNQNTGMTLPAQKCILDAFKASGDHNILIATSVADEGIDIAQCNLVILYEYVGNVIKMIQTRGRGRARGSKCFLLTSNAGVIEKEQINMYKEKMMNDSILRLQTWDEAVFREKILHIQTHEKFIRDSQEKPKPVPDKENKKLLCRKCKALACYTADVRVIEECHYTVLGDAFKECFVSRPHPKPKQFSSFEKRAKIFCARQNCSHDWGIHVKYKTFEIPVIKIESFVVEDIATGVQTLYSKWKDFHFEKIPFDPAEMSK
# Experimental: (§1) RIG-I and MDA-5 stimulation were tested by assessing IRF3 activation in HEK293 cells expressing human RIG-I or MDA-5 genes. The activity of the test articles was tested on human RIG-I and MDA-5 expressing cells as a potential agonist or antagonist. The test articles were evaluated at one concentration and compared to control ligands. This step was performed in triplicate. The results are provided as Relative Luminescence Units (RLUs). RIG-I/MDA-5: Poly(I:C)/LyoVec at 1 μg/mL Antagonist: 500 ng/mL. 5′ppp-dsRNA/LyoVec at 1 μg/mL Antagonist: 500 ng/mL. hIFNα at 1000 IU/mL. Antagonist: 100 IU/mL. In a 96-well plate (200 μL total volume) containing the appropriate cells (25,000-50,000 cells/well), 20 μL of the test article or of the positive control ligand was added to the wells. For the antagonist assay, the test article was incubated with the cells, at 37° C. with 5% CO2, for 30 minutes prior to the addition of the positive control ligand to the wells. After 20 hour incubation, activation of the IRF pathway was monitored using a luciferase detection assay. Luciferase activity was assayed in triplicate from the supernatant of the induced cells, and the relative luminescence units (RLUs) are detected by a Promega GloMax Luminometer. Fold induction (ratio of average induced value to average non-induced value).
# human MDA-5 = target: T2, human MDA-5 (Homo sapiens, UniProt Q9BYX4); assay: as above; format: cell-based; details: antagonist mode, Ami 1 μM
# T2 construct: expressed in transfected cells; host or cells: HEK293
# T2 sequence (Q9BYX4 1-1025): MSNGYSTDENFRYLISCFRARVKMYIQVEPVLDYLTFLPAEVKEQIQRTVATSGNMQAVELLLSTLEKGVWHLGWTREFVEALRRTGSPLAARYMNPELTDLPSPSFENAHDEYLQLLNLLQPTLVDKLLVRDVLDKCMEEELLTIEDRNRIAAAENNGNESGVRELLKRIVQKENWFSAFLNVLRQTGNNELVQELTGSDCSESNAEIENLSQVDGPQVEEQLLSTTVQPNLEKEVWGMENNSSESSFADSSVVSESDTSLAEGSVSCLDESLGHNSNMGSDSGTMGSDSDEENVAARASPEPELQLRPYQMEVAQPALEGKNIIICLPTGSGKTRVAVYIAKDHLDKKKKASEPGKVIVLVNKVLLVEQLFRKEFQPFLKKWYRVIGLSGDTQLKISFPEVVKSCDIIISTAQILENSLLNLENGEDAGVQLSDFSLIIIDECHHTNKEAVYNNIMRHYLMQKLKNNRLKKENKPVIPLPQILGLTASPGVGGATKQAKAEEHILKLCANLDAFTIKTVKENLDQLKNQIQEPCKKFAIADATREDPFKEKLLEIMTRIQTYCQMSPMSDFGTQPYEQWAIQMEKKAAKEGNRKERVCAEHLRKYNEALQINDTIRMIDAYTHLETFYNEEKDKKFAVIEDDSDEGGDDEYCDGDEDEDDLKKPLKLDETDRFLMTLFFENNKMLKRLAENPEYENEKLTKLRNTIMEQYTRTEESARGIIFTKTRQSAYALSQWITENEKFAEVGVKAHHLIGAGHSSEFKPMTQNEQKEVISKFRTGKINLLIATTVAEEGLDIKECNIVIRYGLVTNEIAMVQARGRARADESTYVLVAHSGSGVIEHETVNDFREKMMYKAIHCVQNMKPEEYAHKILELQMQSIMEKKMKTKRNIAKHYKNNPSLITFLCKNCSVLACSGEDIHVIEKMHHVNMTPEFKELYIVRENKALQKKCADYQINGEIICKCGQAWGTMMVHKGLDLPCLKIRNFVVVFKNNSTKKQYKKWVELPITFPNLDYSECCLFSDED
# Experimental: as §1
smiles,measurement,setting,value
CN(C)CCC=C1c2ccccc2CCc2ccccc21 [Amitriptyline],spinal glial activation induced by intrauterine LPS,[1],additional activity reducing spinal glial activation above TAK-242 alone
same,spinal glial activation induced by intrauterine LPS,[1]; listed as amitriptyline,prevented
same,dose effective at reducing spinal glial activation,"[1]; mouse model, intrauterine administration",0.027 mg/kg
same,side effects,[2],"drowsiness, dry mouth, blurred vision, pupil dilation, constipation, weight and urinary retention"
same,Fold induction (ratio of average induced value to average non-induced value),"human RIG-I; 5′ppp-dsRNA/LyoVec 500 ng/mL, No Sample 6, Control− 1",6
same,Fold induction (ratio of average induced value to average non-induced value),"human RIG-I; Poly(I:C)/LyoVec 500 ng/mL, No Sample 16, Control− 1",16
same,Fold induction (ratio of average induced value to average non-induced value),"human MDA-5; 5′ppp-dsRNA/LyoVec 500 ng/mL, No Sample 1, Control− 1",1
same,Fold induction (ratio of average induced value to average non-induced value),"human MDA-5; Poly(I:C)/LyoVec 500 ng/mL, No Sample 9, Control− 1",10
same,Fold induction (ratio of average induced value to average non-induced value),"human MDA-5; hIFNα 100 IU/mL, No Sample 255, Control− 1, listed as Ami",192
